{"source": "patent US20160082021A1", "about": "“PHARMACEUTICAL COMPOSITION OF DOXYCYCLINE WITH REDUCED FOOD EFFECT” (SUN PHARMACEUTICAL INDUSTRIES LIMITED, priority 2014, published 2016)", "origin": "cited, not measured here", "details": "oral versus intravenous doses", "data": [{"smiles": "C[C@H]1c2cccc(O)c2C(=O)C2=C(O)[C@]3(O)C(=O)C(C(N)=O)=C(O)[C@@H](N(C)C)[C@@H]3[C@@H](O)[C@@H]21", "note": "[doxycycline]", "values": [{"measurement": "absorption for oral administration", "value": "73-77%"}]}]}
